IC50 data for 27 molecules are collected here from patent US8158621B2, “Methods of treating or preventing autoimmune diseases with 2,4-pyrimidinediamine compounds” (Rigel Pharmaceuticals, Inc., priority 2002, dated 2012).

SMILES strings stand for the structures. Some results are limits rather than exact numbers.

The first assay concerns cultured human mast cells (CHMC). As to the kind of experiment: CHMC low cell density ionomycin activation: tryptase assay. Particulars: low cell density; read-out: CHMC Ionomycin Tryptase. In kind it is cell-based.
For `COc1ccc(Nc2nc(Nc3cc(C)c(OC)c(Cl)c3)ncc2F)cc1Cl` [Compound R926972], the IC50 is above 10 µM.

Regarding `CN(CCO)C(=O)C1Cc2cc(Nc3ncc(F)c(Nc4ccc(OC(F)(F)F)c(Cl)c4)n3)ccc2O1` (racemic) [Compound R926960], the IC50 is above 10 µM.

Take `CCOC(=O)CCn1cc2cc(Nc3ncc(F)c(Nc4ccc(Cl)c(Cl)c4)n3)ccc2n1` [Compound R935447]: the IC50 is 4.7 µM.

Turning to `COc1ccc(Nc2ncc(F)c(Nc3ccc4cc[nH]c4c3)n2)cc1Cl` [Compound R927091], the IC50 was above 10 µM.

For the molecule `CNC(=O)n1ccc2ccc(Nc3nc(Nc4cc(OC)cc(OC)c4)ncc3F)cc21` [Compound R926995], the IC50 was above 10 µM.

`COc1ccc(Nc2nc(Nc3cccc(OCC(=O)NCCO)c3)ncc2F)cc1Cl` [Compound R926963]: the IC50 was above 10 µM.

`CC1(C)Oc2ccc(Nc3ncc(F)c(Nc4ccc5cn[nH]c5c4)n3)cc2NC1=O` [Compound R935440]: the IC50 turned out to be 88 µM.

For `CCN(CC)CCCNc1ncc(F)c(Nc2ccc3c(c2)NC(=O)[C@H](C)O3)n1` [Compound R950471], the IC50 is above 10 µM.

As to `CNC(=O)COc1cccc(Nc2ncc(F)c(Nc3ccc4c(c3)C(=O)NC(=O)C4(C)C)n2)c1` [Compound R909318], the IC50 was above 10 µM.

Regarding `O=C1COc2ccc(Nc3nc(Nc4cc(Cl)cc(Cl)c4)ncc3F)nc2N1` [Compound R945454], the IC50 is above 10 µM.

In the case of `CC(C)(C)OC(=O)NCc1ccc(Nc2ncc(F)c(Nc3ccc(Cl)c(Cl)c3)n2)cc1` [Compound R950458], the IC50 stood at 12 µM.

Consider `CN(C)Cc1cc2cc(Nc3ncc(F)c(Nc4ccc(Cl)c(Cl)c4)n3)ccc2o1` [Compound R926980], for which the IC50 came to 5.49 µM.

Turning to `COc1c(Cl)cc(Nc2ncc(F)c(Nc3ccc4c(c3)NC(=O)C(C)(C)O4)n2)cc1Cl` [Compound R927056], the IC50 was 1.58 µM.

On to `OCCCn1ncc2cc(Nc3ncc(F)c(Nc4ccc(Cl)cc4)n3)ccc21` [Compound R935383], for which the IC50 is above 10 µM.

In the case of `COc1ccc(Nc2nc(Nc3ccc4oc(CN(C)C)cc4c3)ncc2F)cc1Cl` [Compound R926978], the IC50 stood at 18 µM.

As for `COc1ccc(Nc2nc(Nc3ccc4[nH]ncc4c3)ncc2F)cc1Cl` [Compound R935459], the IC50 was 4.7 µM.

As to `Cc1cccc(C)c1Nc1ncc(F)c(Nc2ccc3cc[nH]c3c2)n1` [Compound R927088], the IC50 was above 10 µM.

In the case of `O=C(COc1cccc(Nc2ncc(F)c(NC3CCC3)n2)c1)NC1CC1` [Compound R945393], the IC50 was found to be 21.7 µM.

Turning to `COc1ccc(Nc2ncc(F)c(Nc3ccc4c(c3)NC(=O)C(CCO)O4)n2)cc1Cl` (stereo not drawn) [Compound R908951], the IC50 was found to be 5.48 µM.

Consider `COc1cc(Nc2ncc(F)c(Nc3ccc4c(c3)NC(=O)C(C)(C)O4)n2)cc(C(F)(F)F)c1` [Compound R927065], for which the IC50 is above 10 µM.

For `Fc1cnc(Nc2ccc(N3CCOCC3)cc2)nc1NC1CC1` [Compound R945356], the IC50 is above 10 µM.

Turning to `COc1cc(Nc2nc(Nc3ccc(CN)cc3)ncc2F)cc(OC)c1` [Compound R950457], the IC50 is above 10 µM.

On to `COc1cc(Nc2ncc(F)c(Nc3cccc(NC(C)=O)n3)n2)cc(OC)c1` [Compound R927096], for which the IC50 was above 10 µM.

Turning to `O=C(COc1cccc(Nc2ncc(F)c(NC3CC3)n2)c1)NC1CCC1` [Compound R945364], the IC50 is above 10 µM.

Turning to `COc1ccc(Nc2ncc(F)c(NC3CCC3)n2)cc1Cl` [Compound R945395], the IC50 is above 10 µM.

For the molecule `CCN(CC)CCCNc1ncc(F)c(Nc2cc(OC)cc(OC)c2)n1` [Compound R950469], the IC50 is above 10 µM.

For `CNC(=O)CCn1cc2cc(Nc3ncc(F)c(Nc4ccc5c(c4)NC(=O)C(C)(C)O5)n3)ccc2n1` [Compound R935453], the IC50 was above 10 µM.

Another assay has the same test system. Put plainly: CHMC low cell density IgE activation: tryptase assay. The class given is cell-based. The settings on record: low cell density; read-out: CHMC anti-IgE Tryptase. A digest of the protocol:
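Degranulation was triggered with anti-IgE for 30 minutes at 37° C in cultured human mast cells seeded at low density (1000-1500 cells/well, chosen by donor) after a 1 hr equilibration in MT buffer. Released tryptase in cleared supernatant was quantified with a tryptase substrate at room temperature for 30 minutes.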
As for `COc1ccc(Nc2nc(Nc3cc(C)c(OC)c(Cl)c3)ncc2F)cc1Cl` [Compound R926972], the IC50 was determined as 5.29 µM.

Consider `CN(CCO)C(=O)C1Cc2cc(Nc3ncc(F)c(Nc4ccc(OC(F)(F)F)c(Cl)c4)n3)ccc2O1` (racemic) [Compound R926960], for which the IC50 turned out to be 0.399 µM.

As for `CCOC(=O)CCn1cc2cc(Nc3ncc(F)c(Nc4ccc(Cl)c(Cl)c4)n3)ccc2n1` [Compound R935447], the IC50 was 0.511 µM.

Regarding `COc1ccc(Nc2ncc(F)c(Nc3ccc4cc[nH]c4c3)n2)cc1Cl` [Compound R927091], the IC50 came out at 0.27 µM.

In the case of `CNC(=O)n1ccc2ccc(Nc3nc(Nc4cc(OC)cc(OC)c4)ncc3F)cc21` [Compound R926995], the IC50 is 9.56 µM.

For `COc1ccc(Nc2nc(Nc3cccc(OCC(=O)NCCO)c3)ncc2F)cc1Cl` [Compound R926963], the IC50 turned out to be 0.155 µM.

`CC1(C)Oc2ccc(Nc3ncc(F)c(Nc4ccc5cn[nH]c5c4)n3)cc2NC1=O` [Compound R935440]: the IC50 worked out at 0.176 µM.

Consider `CCN(CC)CCCNc1ncc(F)c(Nc2ccc3c(c2)NC(=O)[C@H](C)O3)n1` [Compound R950471], for which the IC50 came to 50.5 µM.

For `CNC(=O)COc1cccc(Nc2ncc(F)c(Nc3ccc4c(c3)C(=O)NC(=O)C4(C)C)n2)c1` [Compound R909318], the IC50 amounted to 1.02 µM.

Regarding `O=C1COc2ccc(Nc3nc(Nc4cc(Cl)cc(Cl)c4)ncc3F)nc2N1` [Compound R945454], the IC50 is 20.6 µM.

With `CC(C)(C)OC(=O)NCc1ccc(Nc2ncc(F)c(Nc3ccc(Cl)c(Cl)c3)n2)cc1` [Compound R950458], the IC50 came to 1.32 µM.

Consider `CN(C)Cc1cc2cc(Nc3ncc(F)c(Nc4ccc(Cl)c(Cl)c4)n3)ccc2o1` [Compound R926980], for which the IC50 is 0.68 µM.

Regarding `COc1c(Cl)cc(Nc2ncc(F)c(Nc3ccc4c(c3)NC(=O)C(C)(C)O4)n2)cc1Cl` [Compound R927056], the IC50 came out at 0.144 µM.

In the case of `OCCCn1ncc2cc(Nc3ncc(F)c(Nc4ccc(Cl)cc4)n3)ccc21` [Compound R935383], the IC50 came to 0.146 µM.

With `COc1ccc(Nc2nc(Nc3ccc4oc(CN(C)C)cc4c3)ncc2F)cc1Cl` [Compound R926978], the IC50 was found to be 0.995 µM.

With `COc1ccc(Nc2nc(Nc3ccc4[nH]ncc4c3)ncc2F)cc1Cl` [Compound R935459], the IC50 was 0.343 µM.

On to `Cc1cccc(C)c1Nc1ncc(F)c(Nc2ccc3cc[nH]c3c2)n1` [Compound R927088], for which the IC50 stood at 0.117 µM.

As for `O=C(COc1cccc(Nc2ncc(F)c(NC3CCC3)n2)c1)NC1CC1` [Compound R945393], the IC50 stood at 1.34 µM.

Turning to `COc1ccc(Nc2ncc(F)c(Nc3ccc4c(c3)NC(=O)C(CCO)O4)n2)cc1Cl` (stereo not drawn) [Compound R908951], the IC50 came to 0.085 µM.

Turning to `COc1cc(Nc2ncc(F)c(Nc3ccc4c(c3)NC(=O)C(C)(C)O4)n2)cc(C(F)(F)F)c1` [Compound R927065], the IC50 worked out at 0.235 µM.

As to `Fc1cnc(Nc2ccc(N3CCOCC3)cc2)nc1NC1CC1` [Compound R945356], the IC50 stood at 1.17 µM.

As to `COc1cc(Nc2nc(Nc3ccc(CN)cc3)ncc2F)cc(OC)c1` [Compound R950457], the IC50 amounted to 3.09 µM.

As for `COc1cc(Nc2ncc(F)c(Nc3cccc(NC(C)=O)n3)n2)cc(OC)c1` [Compound R927096], the IC50 worked out at 0.402 µM.

For the molecule `O=C(COc1cccc(Nc2ncc(F)c(NC3CC3)n2)c1)NC1CCC1` [Compound R945364], the IC50 amounted to 1 µM.

Turning to `COc1ccc(Nc2ncc(F)c(NC3CCC3)n2)cc1Cl` [Compound R945395], the IC50 worked out at 1.14 µM.

With `CCN(CC)CCCNc1ncc(F)c(Nc2cc(OC)cc(OC)c2)n1` [Compound R950469], the IC50 is above 10 µM.

Turning to `CNC(=O)CCn1cc2cc(Nc3ncc(F)c(Nc4ccc5c(c4)NC(=O)C(C)(C)O5)n3)ccc2n1` [Compound R935453], the IC50 was found to be 0.15 µM.
